According to patent publication US8134015B2, “Compound inhibiting in vivo phosphorous transport and medicine containing the same” (Kyowa Hakko Kirin Co., Ltd., priority 2003, dated 2012):

How the values were obtained:
[1] = tested on: SD rats; assay: Inhibitory activity against 32P absorption from intestinal tract; type: in vivo; details: Rattus norvegicus, oral, read-out: Blood radioactivity inhibition, %
Procedure: Pharmacological Test Example 4
Inhibitory Activity Against ^32P Absorption from Intestinal Tract
SD rats (6 to 7 weeks old, obtained from Charles River Japan, Inc. (Japan)) were raised with low-phosphorus diet (phosphorus content 0.1%, manufactured by Oriental Yeast Co., Ltd. (Japan)) for 3 to 4 days and then fasted for about 24 hr for experiment. ^32P was diluted with purified water or liquid feed (CLEA JAPAN INC. (Japan)) to 0.7 to 3.5 MBq/ml and was forcibly orally administered at a dose of 5 ml/kg (administered into the gaster through an oral probe). The compounds or media were forcibly orally administered at a dose of 5 ml/kg (divided dose of twice), 30 min before the administration of ^32P and simultaneously with the administration of ^32P. Blood was collected from caudal artery 30 min, 45 min, or 60 min after ^32P administration, and blood ^32P radioactivity was measured with a liquid scintillation counter. Inhibition of an increase in blood radioactivity was used as a measure of inhibition of phosphate absorption from the intestinal tract.
The results are expressed in terms of the percentage inhibition determined by the following equation. (Blood radioactivity for group with the administration of medium−Blood radioactivity for group with the administration of compound)/(Blood radioactivity for group with the administration of medium)×100
t-Test was used for a significant test of the average value difference of blood radioactivity.

[2] = biological target: T1, rat NaPi-2b (Rattus norvegicus, UniProt Q9JJ09); assay: Sodium-dependent phosphate uptake of Xenopus oocytes which expressed NaPi-2b (32P); type: cell-based; details: Xenopus oocytes expressing rat NaPi-2b, 32P radioactive phosphorus; read-out: IC50 (phosphate uptake inhibitory activity)
T1 construct: expressed in transfected cells; host or cells: Xenopus oocytes injected with cRNA
T1 sequence (Q9JJ09 1-695): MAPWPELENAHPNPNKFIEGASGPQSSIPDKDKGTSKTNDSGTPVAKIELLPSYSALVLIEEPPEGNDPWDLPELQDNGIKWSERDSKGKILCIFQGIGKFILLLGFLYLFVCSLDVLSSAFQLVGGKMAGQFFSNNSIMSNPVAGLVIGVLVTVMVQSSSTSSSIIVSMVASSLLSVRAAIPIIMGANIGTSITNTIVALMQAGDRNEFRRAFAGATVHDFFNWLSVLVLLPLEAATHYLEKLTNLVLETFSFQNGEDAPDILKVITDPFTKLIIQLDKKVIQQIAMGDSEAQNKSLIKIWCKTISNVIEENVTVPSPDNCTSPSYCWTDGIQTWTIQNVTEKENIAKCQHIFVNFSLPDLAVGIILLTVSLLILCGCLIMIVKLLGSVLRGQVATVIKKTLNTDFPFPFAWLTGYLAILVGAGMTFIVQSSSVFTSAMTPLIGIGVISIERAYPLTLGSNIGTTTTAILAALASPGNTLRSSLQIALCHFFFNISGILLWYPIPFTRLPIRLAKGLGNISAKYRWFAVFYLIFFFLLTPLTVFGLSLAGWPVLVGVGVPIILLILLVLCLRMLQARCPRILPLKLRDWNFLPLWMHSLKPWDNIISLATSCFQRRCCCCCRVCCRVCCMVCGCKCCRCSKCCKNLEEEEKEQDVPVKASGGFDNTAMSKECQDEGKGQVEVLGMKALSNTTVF
Method in brief: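 Inhibition at 300 μM and 100 μM was read off one inhibition curve of 32P phosphate uptake. Uptake was measured in Xenopus oocytes cultured 2 days after injection of cRNA for cloned rat NaPi-2b.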

[3] = biological target: T2, human NaPi-2a (Homo sapiens, UniProt Q06495); assay: Sodium-dependent phosphate uptake of Xenopus oocytes which expressed NaPi-2a (32P); type: cell-based; details: phosphate uptake, Xenopus oocytes expressing human NaPi-2a; five concentration levels
T2 construct: expressed in transfected cells
T2 sequence (Q06495 1-639): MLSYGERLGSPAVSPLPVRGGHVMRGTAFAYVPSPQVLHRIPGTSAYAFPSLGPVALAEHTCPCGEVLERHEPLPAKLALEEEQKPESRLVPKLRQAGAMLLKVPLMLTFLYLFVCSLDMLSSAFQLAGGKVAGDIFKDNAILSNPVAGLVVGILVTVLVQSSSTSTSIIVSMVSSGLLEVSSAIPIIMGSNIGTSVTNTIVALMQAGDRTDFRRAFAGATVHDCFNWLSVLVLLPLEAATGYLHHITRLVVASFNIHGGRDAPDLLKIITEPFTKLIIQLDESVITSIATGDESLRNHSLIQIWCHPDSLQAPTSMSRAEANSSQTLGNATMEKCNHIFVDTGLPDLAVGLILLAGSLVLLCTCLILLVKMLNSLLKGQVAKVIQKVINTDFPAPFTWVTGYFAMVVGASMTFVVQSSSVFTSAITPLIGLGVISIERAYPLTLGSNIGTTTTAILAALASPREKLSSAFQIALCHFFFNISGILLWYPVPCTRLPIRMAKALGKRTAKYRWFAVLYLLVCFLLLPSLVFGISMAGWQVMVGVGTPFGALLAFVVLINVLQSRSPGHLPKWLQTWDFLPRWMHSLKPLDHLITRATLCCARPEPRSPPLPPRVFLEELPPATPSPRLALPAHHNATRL
Text: Experiment of Sodium-Dependent Phosphate Uptake of Xenopus oocytes which Expressed NaPi-2a
In the test, a group with the addition of choline chloride (Choline Cl) was used as a negative control for nonspecific uptake, and PFA (phosphonoformic acid) was used as a positive control for phosphate transport inhibition.

| SMILES | IC50 [2] [nM] | IC50 [3] [nM] | further results |
| --- | --- | --- | --- |
| COc1ccc(C(=O)Nc2ccc(Cl)cc2C(=O)N/N=C/c2ccc(Cl)c(C(F)(F)F)c2)cc1OC [Compound 88, N-[4-Chloro-2-(4-chloro-3-trifluoromethyl-benzylidene-hydrazinocarbonyl)-phenyl]-3,4-dimethoxy-benzamide] | 220 |  | inhibition in vivo at 400 mg/kg ([1]; dose 400 mg/kg): 29.1% |
| COc1ccc(C(=O)Nc2ccc(Br)cc2C(=O)N/N=C/c2ccc(C)c(C)c2)cc1OC [Compound 91, N-[4-Bromo-2-(3,4-dimethyl-benzylidene-hydrazinocarbonyl)-phenyl]-3,4-dimethoxy-benzamide] | 220 |  | inhibition in vivo at 320 mg/kg [1]: 28.3% |
| COc1ccc(C(=O)Nc2ccc(Cl)cc2C(=O)N/N=C/c2ccc(C)c(C)c2)cc1OC [Compound 92, N-[4-Chloro-2-(3,4-dimethyl-benzylidene-hydrazinocarbonyl)-phenyl]-3,4-dimethoxy-benzamide] | 260 |  | inhibition in vivo at 160 mg/kg ([1]; dose 160 mg/kg): 25.5% |
| O=C(Nc1ccccc1C(=O)N/N=C/c1ccc(F)cc1)c1cccnc1 [Compound 130, N-[2-(4-Fluoro-benzylidene-hydrazinocarbonyl)-phenyl]-nicotinamide] | 11400 |  | inhibition in vivo at 270 mg/kg ([1]; dose 270 mg/kg): 22.8% |
| O=C(Nc1ccc(Br)cc1C(=O)N/N=C/c1cccc(F)c1)c1cccs1 [Compound 157, Thiophene-2-carboxylic acid [4-bromo-2-(3-fluoro-benzylidene-hydrazinocarbonyl)-phenyl]-amide] | 7190 |  | inhibition in vivo at 320 mg/kg [1]: 20.7% |
| O=C(Nc1ccc(N2CCCCC2)cc1C(=O)N/N=C/c1cccc(F)c1)c1cccc(CSCC(O)CO)c1 (centres unmarked) [Compound 902, 3-(2,3-Dihydroxy-propylsulfanylmethyl)-N-[2-(3-fluoro-benzylidene-hydrazinocarbonyl)-4-piperidin-1-yl-phenyl]-benzamide] | < 1000 | < 1000 |  |
| O=C(Nc1ccc(N2CCCCC2)cc1C(=O)N/N=C/c1ccc(Cl)c(C(F)(F)F)c1)c1cccc(CSCC(O)CO)c1 (centres unmarked) [Compound 903, N-[2-(4-Chloro-3-trifluoromethyl-benzylidene-hydrazinocarbonyl)-4-piperidin-1-yl-phenyl]-3-(2,3-dihydroxy-propyl-sulfanylmethyl)-benzamide] | < 1000 | < 1000 |  |
| COc1ccc(/C=N/NC(=O)c2cc(N3CCCCC3)ccc2NC(=O)c2cccc(CSCC(O)CO)c2)cc1 (centres unmarked) [Compound 904, 3-(2,3-Dihydroxy-propylsulfanylmethyl)-N-[2-(4-methoxy-benzylidene-hydrazinocarbonyl)-4-piperidin-1-yl-phenyl]-benzamide] | 1710 | 1690 |  |
| O=C(Nc1ccc(N2CCCCC2)cc1C(=O)N/N=C/c1ccc(Cl)c(C(F)(F)F)c1)c1cccc(CNCCN(CCO)CCO)c1 [Compound 914, 3-({2-[Bis-(2-hydroxy-ethyl)-amino]-ethylamino}-methyl)-N-[2-(4-chloro-3-trifluoromethyl-benzylidene-hydrazinocarbonyl)-4-piperidin-1-yl-phenyl]-benzamide] | 1750 | 3130 |  |
| COc1ccc(C(=O)Nc2ccc(N3CCCCC3)cc2C(=O)N/N=C/c2ccc(C)c(C)c2)cc1OC [Compound 935, N-[2-(3,4-Dimethyl-benzylidene-hydrazinocarbonyl)-4-piperidin-1-yl-phenyl]-3,4-dimethoxy-benzamide] | 170 | 9680 |  |
| COc1ccc(C(=O)Nc2ccc(N3CCCCC3)cc2C(=O)N/N=C/c2cccnc2)cc1OC [Compound 936, 3,4-Dimethoxy-N-[4-piperidin-1-yl-2-(pyridin-3-ylmethylene-hydrazinocarbonyl)-phenyl]-benzamide] | 5590 | 30000 |  |
| Cc1ccc(/C=N/NC(=O)c2cc(F)ccc2NC(=O)c2cccc(CN(CC(C)O)CC(C)O)c2)cc1C (centres unmarked) [Compound 985, 3-{[Bis-(2-hydroxy-propyl)-amino]-methyl}-N-[2-(3,4-dimethyl-benzylidene-hydrazinocarbonyl)-4-fluoro-phenyl]-benzamide] | < 3000 | < 3000 |  |
| CC(O)CN(Cc1cccc(C(=O)Nc2ccc(F)cc2C(=O)N/N=C/c2cccc(F)c2)c1)CC(C)O (centres unmarked) [Compound 987, 3-{[Bis-(2-hydroxy-propyl)-amino]-methyl}-N-[4-fluoro-2-(3-fluoro-benzylidene-hydrazinocarbonyl)-phenyl]-benzamide] | < 3000 | 16300 |  |
| Cc1ccc(/C=N/NC(=O)c2cc(F)ccc2NC(=O)c2cccc(CN(CC(C)O)CC(C)O)c2)cc1 (centres unmarked) [Compound 989, 3-{[Bis-(2-hydroxy-propyl)-amino]-methyl}-N-[4-fluoro-2-(4-methyl-benzylidene-hydrazinocarbonyl)-phenyl]-benzamide] | < 3000 | 7840 |  |
| COc1ccc(/C=N/NC(=O)c2cc(F)ccc2NC(=O)c2cccc(CN(CC(C)O)CC(C)O)c2)cc1 (centres unmarked) [Compound 990, 3-{[Bis-(2-hydroxy-propyl)-amino]-methyl}-N-[4-fluoro-2-(4-methoxy-benzylidene-hydrazinocarbonyl)-phenyl]-benzamide] | < 3000 | 7140 |  |
| Cc1ccc(/C=N/NC(=O)c2cc(Cl)ccc2NC(=O)c2cccc(CSCC(O)CO)c2)cc1 (centres unmarked) [Compound 1008, N-[4-Chloro-2-(4-methyl-benzylidene-hydrazinocarbonyl)-phenyl]-3-(2,3-dihydroxy-propylsulfanylmethyl)-benzamide] | 300 | 2300 |  |
| Cc1ccc(/C=N/NC(=O)c2cc(Cl)ccc2NC(=O)c2cccc(CSCC(O)CO)c2)cc1C (centres unmarked) [Compound 1009, N-[4-Chloro-2-(3,4-dimethyl-benzylidene-hydrazinocarbonyl)-phenyl]-3-(2,3-dihydroxy-propylsulfanylmethyl)-benzamide] | 100 | 1410 |  |
| COc1ccc(NC(=O)c2cccc(CSCC(O)CO)c2)c(C(=O)N/N=C/c2ccc(Cl)c(C(F)(F)F)c2)c1 (centres unmarked) [Compound 1020, N-[2-(4-Chloro-3-trifluoromethyl-benzylidene-hydrazinocarbonyl)-4-methoxy-phenyl]-3-(2,3-dihydroxy-propylsulfanyl-methyl)-benzamide] | 390 | 2250 |  |
| CCN(CC)CCN(C)Cc1cccc(C(=O)Nc2ccc(OCCOC)cc2C(=O)N/N=C/c2ccc(Cl)c(C(F)(F)F)c2)c1 [Compound 1027, N-[2-(4-Chloro-3-trifluoromethyl-benzylidene-hydrazinocarbonyl)-4-(2-methoxy-ethoxy)-phenyl]-3-{[(2-diethylamino-ethyl)-methyl-amino]-methyl}-benzamide] | 1200 | 1580 |  |
